Data as given in patent EP2042491A1, “Pyridazines as fungicides” (Bayer CropScience AG, priority 2007, dated 2009).
Read-outs that look alike come from different tables or passages of the source.

Legend:
Botrytis cinerea = Botrytis cinerea test (bean) / protective; format: in vivo; settings: 100 ppm active compound; protective spray on young bean plants; lesion size evaluated 2 days after inoculation; 0% = as control, 100% = no infection
Description: (§1) Zur Herstellung einer zweckmäßigen Wirkstoffzubereitung vermischt man 1 Gewichtsteil Wirkstoff mit den angegebenen Mengen Lösungsmittel und Emulgator und verdünnt das Konzentrat mit Wasser auf die gewünschte Konzentration.
Zur Prüfung auf protektive Wirksamkeit werden junge Pflanzen mit der Wirkstoffzubereitung in der angegebenen Aufwandmenge besprüht. Nach Antrocknen des Spritzbelages werden auf jedes Blatt 2 kleine mit Botrytis cinerea bewachsene Agarstückchen aufgelegt. Die inokulierten Pflanzen werden in einer abgedunkelten Kammer bei ca. 20 °C und 100% relativer Luftfeuchtigkeit aufgestellt.
2 Tage nach der Inokulation wird die Größe der Befallsflecken auf den Blättern ausgewertet. Dabei bedeutet 0% ein Wirkungsgrad, der demjenigen der Kontrolle entspricht, während ein Wirkungsgrad von 100% bedeutet, daß kein Befall beobachtet wird.

[1] = HPLC on reversed-phase C18, 40°C, 0.1% aqueous formic acid / acetonitrile, linear gradient 10-95% acetonitrile
Septoria tritici = Septoria tritici test (wheat) / protective; format: in vivo; settings: 1000 ppm active compound; protective spray on young wheat plants; evaluated 21 days after inoculation; 0% = as control, 100% = no infection
Description: as §1
(§2) Zur Prüfung auf protektive Wirksamkeit werden junge Pflanzen mit der Wirkstoffzubereitung in der angegebenen Aufwandmenge besprüht. Nach Antrocknen des Spritzbelages werden die Pflanzen mit einer Sporensuspension von Septoria tritici besprüht. Die Pflanzen verbleiben 48 Stunden bei 20 °C und 100 % relativer Luftfeuchtigkeit in einer Inkubationskabine.
Die Pflanzen werden in einem Gewächshaus bei einer Temperatur von ca. 15 °C und einer relativen Luftfeuchtigkeit von 80 % aufgestellt.
21 Tage nach der Inokulation erfolgt die Auswertung. Dabei bedeutet 0% ein Wirkungsgrad, der demjenigen der Kontrolle entspricht, während ein Wirkungsgrad von 100% bedeutet, daß kein Befall beobachtet wird.

Venturia inaequalis = Venturia inaequalis test (apple) / protective; format: in vivo; settings: 100 ppm active compound; protective spray on young apple plants; evaluated 10 days after inoculation; 0% = as control, 100% = no infection
Description: as §1
Zur Prüfung auf protektive Wirksamkeit werden junge Pflanzen mit der Wirkstoffzubereitung in der angegebenen Aufwandmenge besprüht. Nach Antrocknen des Spritzbelages werden die Pflanzen mit einer wäßrigen Konidiensuspension des Apfelschorferregers Venturia inaequalis inokuliert und verbleiben dann 1 Tag bei ca. 20 °C und 100% relativer Luftfeuchtigkeit in einer Inkubations-kabine.
Die Pflanzen werden dann im Gewächshaus bei ca. 21 °C und einer relativen Luftfeuchtigkeit von ca. 90% aufgestellt.
(§3) 10 Tage nach der Inokulation erfolgt die Auswertung. Dabei bedeutet 0% ein Wirkungsgrad, der demjenigen der Kontrolle entspricht, während ein Wirkungsgrad von 100% bedeutet, daß kein Befall beobachtet wird.

Alternaria solani = format: in vivo; settings: 168 h, 500 ppm
Experimental: as §1
Zur Prüfung auf protektive Wirksamkeit bespritzt man junge Tomatenpflanzen mit der Wirkstoffzubereitung in der angegebenen Aufwandmenge. 1 Tag nach der Behandlung werden die Pflanzen mit einer Sporensuspension von Alternaria solani inokuliert und stehen dann 24h bei 100% rel. Feuchte und 20°C. Anschließend stehen die Pflanzen bei 96% rel. Luftfeuchtigkeit und einer Temperatur von 20 C.
7 Tage nach der Inokulation erfolgt die Auswertung. Dabei bedeutet 0 % ein Wirkungsgrad, der demjenigen der Kontrolle entspricht, während ein Wirkungsgrad von 100 % bedeutet, dass kein Befall beobachtet wird.

Pyricularia oryzae = format: in vivo; settings: 500 ppm active compound; protective spray on young rice plants; evaluated 7 days after inoculation; 0% = as control, 100% = no infection
Leptosphaeria nodorum = Leptosphaeria nodorum test (wheat) / protective; format: in vivo; settings: 1000 ppm active compound; protective spray on young wheat plants; evaluated 10 days after inoculation; 0% = as control, 100% = no infection
Description: as §1
as §2, with “Leptosphaeria nodor um” for “Septoria tritici”
Die Pflanzen werden in einem Gewächshaus bei einer Temperatur von ca. 20 °C und einer relativen Luftfeuchtigkeit von 80 % aufgestellt.
as §3

Sphaerotheca fuliginea = Sphaerotheca fuliginea test (cucumber) / protective; format: in vivo; settings: 500 ppm active compound; protective spray on young cucumber plants; evaluated 7 days after inoculation; 0% = as control, 100% = no infection
Description: as §1
Zur Prüfung auf protektive Wirksamkeit bespritzt man junge Gurkenpflanzen mit der Wirkstoffzubereitung in der angegebenen Aufwandmenge. 1 Tag nach der Behandlung werden die Pflanzen mit einer Sporensuspension von Sphaerotheca fuliginea inokuliert. Anschließend werden die Pflanzen in einem Gewächshaus bei 70 % relativer Luftfeuchtigkeit und einer Temperatur von 23 °C aufgestellt.
7 Tage nach der Inokulation erfolgt die Auswertung. Dabei bedeutet 0 % ein Wirkungsgrad, der demjenigen der Kontrolle entspricht, während ein Wirkungsgrad von 100 % bedeutet, daß kein Befall beobachtet wird.

In the case of `Cc1nnc(Cl)c(-c2c(F)cccc2Cl)c1N1CCC(C)CC1` [1-93, 3-Chlor-4-(2-chlor-6-fluorphenyl)-6-methyl-5-(4-methylpiperidin-1-yl)pyridazin], the Wirkungsgrad (Botrytis cinerea) is reported as ≥ 70%, the “logP^a)” value ([1]; Table 1) is reported as 4,11 and the Wirkungsgrad (Septoria tritici) is reported as ≥ 70%. For the same compound, the chromatographic logP (physchem) was 4.11, the Wirkungsgrad (Venturia inaequalis) was ≥ 70% and the Wirkungsgrad (Alternaria solani) was ≥ 70%. The Wirkungsgrad (Pyricularia oryzae) was ≥ 70% and the Wirkungsgrad (Leptosphaeria nodorum) was ≥ 70%.

In the case of `Cc1nnc(Cl)c(-c2c(F)cccc2Cl)c1OC1CCCCC1` [2-59], the chromatographic logP (physchem) is reported as 4.25, the Wirkungsgrad (Sphaerotheca fuliginea) is reported as ≥ 70% and the Wirkungsgrad (Pyricularia oryzae) is reported as ≥ 70%.

For `Cc1nnc(Cl)c(-c2c(F)cccc2Cl)c1Oc1ccc(Cl)cc1` [2-61, 3-Chlor-4-(2-chlor-6-fluorphenyl)-5-(4-chlorphenoxy)-6-methylpyridazin], the “logP^a)” value ([1]; Table 2) was 4,13, the Wirkungsgrad (Septoria tritici) was ≥ 70% and the Wirkungsgrad (Venturia inaequalis) was ≥ 70%. The Wirkungsgrad (Leptosphaeria nodorum) was ≥ 70%.

For `Cc1nnc(Cl)c(-c2c(F)cccc2Cl)c1N[C@H](C)C(C)C` [1-100], the chromatographic logP (physchem) was 3.22, the Wirkungsgrad (Alternaria solani) was ≥ 70% and the Wirkungsgrad (Sphaerotheca fuliginea) was ≥ 70%. For the same compound, the Wirkungsgrad (Pyricularia oryzae) was ≥ 70%.
